Source: US10213434B2, “Use of factor Xa inhibitors for regulating glycemia” (VAIOMER, priority 2015, dated 2019)
Where two headings read alike, the source gives them in different places.

Columns and labels:
[1] = low = typically inferior or equal to 20%, cited from earlier work
HFD C57/BL6 mice [2] = experiment: Fasting glycemia after 4 weeks of oral treatment in high fat diet mice; type: in vivo
Experimental: FIG. 2: NC or HFD C57/BL6 mice were gavaged daily with saline or one of three doses of Rivaroxaban (1, 2.5 or 5; n=5 per group) for 4 weeks. Histograms show fasting glycemia after 4 weeks of chronic treatment with Rivaroxaban. NC saline: control C57/BL6 mice fed with normal chow and gavaged with saline for 4 weeks. HFD saline: control C57/BL6 mice fed with high fat diet and gavaged with saline for 4 weeks. HFD+X1: C57/BL6 mice fed with high fat diet and gavaged with 1 mg/kg Rivaroxaban for 4 weeks. HFD+X2.5: C57/BL6 mice fed with high fat diet and gavaged with 2.5 mg/kg Rivaroxaban for 4 weeks. HFD+X5: C57/BL6 mice fed with high fat diet and gavaged with 5 mg/kg Rivaroxaban for 4 weeks. Data were analyzed by either one or two-way ANOVA with Tukey's multiple comparison tests and presented as mean±S.E.M. *P<0.05, **P<0.01, ***P<0.001. […]
(§1) An Oral Glucose Tolerance Test (OGTT) was performed on 6-hfasted mice. […] Glycemia was measured with a glucometer (Roche Diagnostics) from blood collected at the tail vein 30 min before the glucose […] and 15, 30, 60, 90 and 120 min after the gavage. The glucose tolerance index was calculated by adding the glycemic values from 30 to 90 min after glucose gavage divided by the corresponding duration.
(§2) After 4 weeks of treatment the inventors measured fasting glycaemia and glucose intolerance (FIGS. 7 and 8).

HFD C57/BL6 mice [3] = experiment: Oral glucose tolerance test (OGTT) after 4 weeks of oral treatment in high fat diet mice; type: in vivo
Experimental: FIG. 3: NC or HFD C57/BL6 mice were gavaged daily with saline or one of three doses of Rivaroxaban (1, 2.5 or 5; n=5 per group) for 4 weeks. Graphs show oral glucose tolerance test (OGTT) (1.5 g/kg) after 4 weeks of chronic treatment with Rivaroxaban. NC-NaCl: control C57/BL6 mice fed with normal chow and gavaged with saline for 4 weeks. HFD-NaCl: control C57/BL6 mice fed with high fat diet and gavaged with saline for 4 weeks. HFD-X1 mg/kg: C57/BL6 mice fed with high fat diet and gavaged with 1 mg/kg Rivaroxaban for 4 weeks. HFD-X2.5 mg/kg: C57/BL6 mice fed with high fat diet and gavaged with 2.5 mg/kg Rivaroxaban for 4 weeks. HFD-X5 mg/kg: C57/BL6 mice fed with high fat diet and gavaged with 5 mg/kg Rivaroxaban for 4 weeks.
FIG. 4: NC or HFD C57/BL6 mice were gavaged daily with saline or one of […] of Rivaroxaban (1, 2.5 or 5; n=5 per group) for 4 weeks. Histograms show glucose intolerance corresponding index (μM/min) from 30 min to 90 min after glucose administration. NC saline: control C57/BL6 mice fed with normal chow and gavaged with saline for 4 weeks. HFD saline: control C57/BL6 mice fed with high fat diet and gavaged with saline for 4 weeks. HFD+X1: C57/BL6 mice fed with high fat diet and gavaged with 1 mg/kg Rivaroxaban for 4 weeks. HFD+X2.5: C57/BL6 mice fed with high fat diet and gavaged with 2.5 mg/kg Rivaroxaban for 4 weeks. HFD+X5: C57/BL6 mice fed with high fat diet and gavaged with 5 mg/kg Rivaroxaban for 4 weeks. Data were analyzed by either one or two-way ANOVA with Tukey's multiple comparison tests and presented as mean±S.E.M. *P<0.05, **P<0.01, ***P<0.001.
FIG. 5: NC or HFD C57/BL6 mice were gavaged daily with saline or one of […] of Rivaroxaban (1, 2.5 or 5; n=5 per group) for 4 weeks. Histograms show diabetes and glucose intolerance corresponding index (μM/min) from 30 min before to 90 min after glucose administration. NC saline: control C57/BL6 mice fed with normal chow and gavaged with saline for 4 weeks. HFD saline: control C57/BL6 mice fed with high fat diet and gavaged with saline for 4 weeks. […] Data were analyzed by either one or two-way ANOVA with Tukey's multiple comparison tests and presented as mean±S.E.M. *P<0.05, **P<0.01, ***P<0.001. […]
as §1, §2

mouse model of diabetes = details: administered into a mouse model of diabetes; cited from earlier work
HFD mice = experiment: Bacterial translocation: 16S rDNA copies in mesenteric adipose tissue of HFD mice; type: in vivo; details: Rivaroxaban 0.2, 0.5 and 1 mg/kg oral gavage daily, 4 weeks, vs non-treated HFD mice, FIG. 6
Experimental: To explore whether intestinal FXa inhibition regulates intestinal permeability the inventors have treated HFD mice daily during 4 weeks with 3 different doses of Rivaroxaban by oral gavage. The inventors chose low Rivaroxaban concentrations (0.2, 0.5 and 1 mg/kg) to have an intestinal effect only and avoid systemic anti-coagulation. After 4 weeks of treatment the number of 16S rDNA copies was measured in mesenteric adipose tissue in order to evaluate bacterial translocation.

CC(=N)N1CC[C@H](Oc2ccc([C@H](Cc3ccc4ccc(C(=N)N)cc4c3)C(=O)O)cc2)C1 [DX-9065]
oral bioavailability [1]: low oral bioavailability

COC(=O)[C@H](Cc1cccc(C(=N)N)c1)[C@@H](C)NC(=O)c1ccc(-c2cc[n+]([O-])cc2)cc1 [Otamixaban, otamixaban]
oral bioavailability [1]: low bioavailability | oral bioavailability ([1]; listed as otamixaban): low oral bioavailability | fasting glycaemia (HFD C57/BL6 mice [2]; HFD mice, Otamixaban 1 and 5 mg/kg oral gavage, FIG. 7): reduces fasting glycaemia | glucose intolerance (OGTT) (HFD C57/BL6 mice [3]; Otamixaban 1 and 5 mg/kg oral gavage, FIG. 8): reduces glucose intolerance

O=C(NC[C@H]1CN(c2ccc(N3CCOCC3=O)cc2)C(=O)O1)c1ccc(Cl)s1 [Rivaroxaban, rivaroxaban]
antithrombotic effects (mouse model of diabetes): displayed antithrombotic effects | bacterial translocation (number of 16S rDNA copies in mesenteric adipose tissue) (HFD mice): reduce bacterial translocation | fasting glycemia (increase induced by high fat diet) (HFD C57/BL6 mice [2]; HFD C57/BL6 mice, Rivaroxaban 1, 2.5 or 5 mg/kg oral gavage, FIG. 2): abolished | glucose intolerance index (30 min to 90 min after glucose administration), HFD-induced increase (HFD C57/BL6 mice [3]; 5 mg/kg Rivaroxaban oral gavage, FIG. 4): reduced | diabetes and glucose intolerance index (30 min before to 90 min after glucose administration) (HFD C57/BL6 mice [3]; 5 mg/kg Rivaroxaban oral gavage, vs HFD saline mice, FIG. 5): significant reduction | blood glucose concentration following oral glucose challenge (OGTT) (HFD C57/BL6 mice [3]; oral Rivaroxaban 1, 2.5 or 5 mg/kg, vs HFD mice gavaged with saline, glucose 1.5 g/kg, FIG. 3): reduced

CO[C@H]1O[C@H](COS(=O)(=O)O)[C@@H](O[C@@H]2O[C@@H](C(=O)O)[C@@H](O[C@H]3O[C@H](COS(=O)(=O)O)[C@@H](O[C@@H]4O[C@H](C(=O)O)[C@@H](O[C@H]5O[C@H](COS(=O)(=O)O)[C@@H](OC)[C@H](OC)[C@H]5NC(=O)CCCCCNC(=O)CCCC[C@@H]5SC[C@@H]6NC(=O)N[C@@H]65)[C@H](OC)[C@H]4OC)[C@H](OS(=O)(=O)O)[C@H]3OS(=O)(=O)O)[C@H](OC)[C@H]2OC)[C@H](OS(=O)(=O)O)[C@H]1OS(=O)(=O)O [idrabiotaparinux]
oral bioavailability [1]: low oral bioavailability

CO[C@H]1O[C@H](COS(=O)(=O)O)[C@@H](O[C@@H]2O[C@@H](C(=O)O)[C@@H](O[C@H]3O[C@H](COS(=O)(=O)O)[C@@H](O[C@@H]4O[C@H](C(=O)O)[C@@H](O[C@H]5O[C@H](COS(=O)(=O)O)[C@@H](OC)[C@H](OC)[C@H]5OC)[C@H](OC)[C@H]4OC)[C@H](OS(=O)(=O)O)[C@H]3OS(=O)(=O)O)[C@H](OC)[C@H]2OC)[C@H](OS(=O)(=O)O)[C@H]1OS(=O)(=O)O [idraparinux]
oral bioavailability [1]: low oral bioavailability

enoxaparin
oral bioavailability [1]: low oral bioavailability
